Assay results as given in article PMC9030254, “Target Hopping from Protein Kinases to PXR: Identification of Small-Molecule Protein Kinase Inhibitors as Selective Modulators of Pregnane X Receptor from TüKIC Library” (Cells, 2022).

Key:
Experiment in all cases: Kinase profiling
Type in all cases: biochemical
EIF2AK3 = target: T1, EIF2AK3 (Homo sapiens, UniProt Q9NZJ5)
T1 construct: purchased ProQinase (Freiburg, Germany)
T1 sequence (Q9NZJ5 30-1116): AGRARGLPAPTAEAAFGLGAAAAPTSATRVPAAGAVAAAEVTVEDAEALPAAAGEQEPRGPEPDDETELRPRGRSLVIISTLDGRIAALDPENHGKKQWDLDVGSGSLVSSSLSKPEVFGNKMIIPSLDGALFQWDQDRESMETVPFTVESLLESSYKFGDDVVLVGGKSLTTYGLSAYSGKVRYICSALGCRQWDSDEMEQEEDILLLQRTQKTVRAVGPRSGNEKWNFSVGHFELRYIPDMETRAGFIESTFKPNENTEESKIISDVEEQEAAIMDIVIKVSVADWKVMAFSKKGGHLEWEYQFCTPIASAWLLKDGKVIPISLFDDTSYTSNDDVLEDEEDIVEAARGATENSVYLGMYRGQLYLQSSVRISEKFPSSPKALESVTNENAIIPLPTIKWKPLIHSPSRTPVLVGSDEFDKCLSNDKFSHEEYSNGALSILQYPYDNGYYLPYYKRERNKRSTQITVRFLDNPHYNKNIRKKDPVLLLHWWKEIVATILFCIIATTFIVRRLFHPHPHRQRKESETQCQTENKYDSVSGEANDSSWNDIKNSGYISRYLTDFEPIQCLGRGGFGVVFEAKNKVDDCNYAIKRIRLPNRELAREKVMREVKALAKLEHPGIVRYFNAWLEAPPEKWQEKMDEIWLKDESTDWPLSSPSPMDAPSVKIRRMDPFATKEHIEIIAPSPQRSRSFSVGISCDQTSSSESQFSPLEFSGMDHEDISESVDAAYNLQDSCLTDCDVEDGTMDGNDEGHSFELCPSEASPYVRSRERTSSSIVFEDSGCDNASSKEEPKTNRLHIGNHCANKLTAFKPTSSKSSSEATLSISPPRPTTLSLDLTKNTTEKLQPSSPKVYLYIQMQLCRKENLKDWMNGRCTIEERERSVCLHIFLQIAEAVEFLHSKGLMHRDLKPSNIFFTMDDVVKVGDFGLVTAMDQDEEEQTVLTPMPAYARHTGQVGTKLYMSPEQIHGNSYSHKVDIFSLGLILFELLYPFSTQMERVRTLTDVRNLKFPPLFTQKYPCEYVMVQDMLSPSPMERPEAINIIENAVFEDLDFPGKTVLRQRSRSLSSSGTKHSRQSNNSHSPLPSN
Description: (§1) The analysis was performed by ProQinase (Freiburg, Germany).

PKCmu = target: T2, PKCmu (Homo sapiens, UniProt Q15139)
T2 construct: purchased ProQinase (Freiburg, Germany)
T2 sequence (Q15139 1-912): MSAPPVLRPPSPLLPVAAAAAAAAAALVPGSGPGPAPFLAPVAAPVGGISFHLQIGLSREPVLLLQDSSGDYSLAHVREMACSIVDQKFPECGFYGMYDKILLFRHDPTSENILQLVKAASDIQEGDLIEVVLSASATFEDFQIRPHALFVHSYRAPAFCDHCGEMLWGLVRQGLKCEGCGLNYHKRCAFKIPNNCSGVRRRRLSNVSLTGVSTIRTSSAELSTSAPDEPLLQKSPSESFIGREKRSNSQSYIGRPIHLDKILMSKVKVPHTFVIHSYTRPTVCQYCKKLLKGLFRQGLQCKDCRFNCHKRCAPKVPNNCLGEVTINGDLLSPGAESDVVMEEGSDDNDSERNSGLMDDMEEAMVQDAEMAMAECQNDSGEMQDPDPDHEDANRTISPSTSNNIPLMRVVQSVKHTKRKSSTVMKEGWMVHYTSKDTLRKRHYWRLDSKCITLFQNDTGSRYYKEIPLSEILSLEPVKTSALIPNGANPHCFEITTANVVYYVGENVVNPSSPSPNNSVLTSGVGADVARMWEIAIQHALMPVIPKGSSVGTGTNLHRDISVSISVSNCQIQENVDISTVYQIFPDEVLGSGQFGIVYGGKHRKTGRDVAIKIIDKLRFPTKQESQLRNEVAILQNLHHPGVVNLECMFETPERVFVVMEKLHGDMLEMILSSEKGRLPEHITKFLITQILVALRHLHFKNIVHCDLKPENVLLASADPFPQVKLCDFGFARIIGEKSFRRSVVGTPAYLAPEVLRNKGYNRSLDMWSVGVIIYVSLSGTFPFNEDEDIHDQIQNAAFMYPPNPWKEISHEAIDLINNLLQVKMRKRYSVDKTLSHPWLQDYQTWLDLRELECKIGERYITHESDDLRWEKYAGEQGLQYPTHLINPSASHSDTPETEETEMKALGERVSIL
Description: as §1

PLK3 = target: T3, PLK3 (Homo sapiens, UniProt Q9H4B4)
T3 construct: purchased ProQinase (Freiburg, Germany)
Description: as §1

TAOK3 = target: T4, TAOK3 (Homo sapiens, UniProt Q9H2K8)
T4 construct: purchased ProQinase (Freiburg, Germany)
T4 sequence (Q9H2K8 1-898): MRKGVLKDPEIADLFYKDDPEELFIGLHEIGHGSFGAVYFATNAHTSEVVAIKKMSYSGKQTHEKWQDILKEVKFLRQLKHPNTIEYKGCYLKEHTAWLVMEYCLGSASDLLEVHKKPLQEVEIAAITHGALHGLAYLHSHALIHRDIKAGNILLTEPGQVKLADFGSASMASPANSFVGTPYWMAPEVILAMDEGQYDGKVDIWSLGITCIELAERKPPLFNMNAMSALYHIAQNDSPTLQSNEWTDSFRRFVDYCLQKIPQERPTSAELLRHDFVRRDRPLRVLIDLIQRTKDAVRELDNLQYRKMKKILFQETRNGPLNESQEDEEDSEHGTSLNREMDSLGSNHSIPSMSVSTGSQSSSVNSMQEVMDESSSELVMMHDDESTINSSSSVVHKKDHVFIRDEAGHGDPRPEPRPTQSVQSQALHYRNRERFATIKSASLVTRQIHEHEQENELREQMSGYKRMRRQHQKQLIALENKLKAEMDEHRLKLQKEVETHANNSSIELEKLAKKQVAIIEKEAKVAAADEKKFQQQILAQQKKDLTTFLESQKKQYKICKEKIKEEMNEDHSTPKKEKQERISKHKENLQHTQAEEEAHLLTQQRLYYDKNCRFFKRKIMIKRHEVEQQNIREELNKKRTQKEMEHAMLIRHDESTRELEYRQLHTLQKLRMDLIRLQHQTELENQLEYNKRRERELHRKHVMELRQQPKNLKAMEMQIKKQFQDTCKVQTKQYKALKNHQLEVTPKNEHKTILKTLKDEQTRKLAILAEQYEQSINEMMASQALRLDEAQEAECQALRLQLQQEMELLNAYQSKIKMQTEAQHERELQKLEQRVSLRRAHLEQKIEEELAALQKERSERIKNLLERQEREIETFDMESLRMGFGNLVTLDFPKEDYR
Description: as §1

T3 sequence (Q9H4B4 whole entry): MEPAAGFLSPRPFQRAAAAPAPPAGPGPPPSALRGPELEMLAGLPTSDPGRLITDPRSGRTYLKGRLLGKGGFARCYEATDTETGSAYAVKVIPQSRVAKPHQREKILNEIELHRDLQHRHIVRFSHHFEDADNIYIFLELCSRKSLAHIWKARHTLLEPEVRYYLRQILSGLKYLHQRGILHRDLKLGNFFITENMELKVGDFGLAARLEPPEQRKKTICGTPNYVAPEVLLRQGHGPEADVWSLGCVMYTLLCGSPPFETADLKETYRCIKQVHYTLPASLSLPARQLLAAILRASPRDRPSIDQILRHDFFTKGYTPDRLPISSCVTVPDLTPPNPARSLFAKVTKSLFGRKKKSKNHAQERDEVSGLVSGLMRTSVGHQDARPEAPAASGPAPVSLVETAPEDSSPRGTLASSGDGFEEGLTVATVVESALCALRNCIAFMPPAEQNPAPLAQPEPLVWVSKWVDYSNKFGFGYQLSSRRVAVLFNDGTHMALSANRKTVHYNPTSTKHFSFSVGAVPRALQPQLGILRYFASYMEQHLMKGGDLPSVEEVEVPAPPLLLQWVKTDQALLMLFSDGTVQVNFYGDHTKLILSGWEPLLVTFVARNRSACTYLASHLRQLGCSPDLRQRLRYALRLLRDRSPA

Structure (SMILES) | Residual activity (EIF2AK3; 1.0E-05 M) | Residual activity (EIF2AK3; 1.0E-06 M) | Residual activity (PKCmu; 1.0E-05 M) | Residual activity (PKCmu; 1.0E-06 M) | Residual activity (PLK3; 1.0E-05 M) | Residual activity (PLK3; 1.0E-06 M) | Residual activity (TAOK3; 1.0E-05 M) | Residual activity (TAOK3; 1.0E-06 M)
O=C(Nc1ccc(F)c(Nc2ccc3c(c2)CCCCC3=O)c1)c1cccc(F)c1 [Compound 109] | 92 % of control | 93 % of control | 96 % of control | 95 % of control | 104 % of control | 104 % of control | 91 % of control | 99 % of control
O=C(Cc1ccccc1)Nc1ccc(F)c(Nc2ccc3c(c2)CCCCC3=O)c1 [Compound 100] | 102 % of control | 94 % of control | 94 % of control | 106 % of control | 114 % of control | 115 % of control | 98 % of control | 105 % of control
